Source: patent publication US20120010272A1, “RNA Interference Mediated Inhibition of Apoptosis Signal-Regulating Kinase 1 (ASK1) Gene Expression Using Short Interfering Nucleic Acid (siNA)” (Merck Sharp & Dohme Corp., priority 2009, published 2012)
[invAb] = inverted abasic unit; d = 2'-deoxy (DNA); m = 2'-O-methyl; r = 2'-OH (RNA); f = 2'-fluoro

Legend:
[1] = tested on: ASK1 mRNA; assay: ASK1 mRNA knock-down by siNA in human A549 cells (RNAiMax transfection, Taqman RT-PCR); type: cell-based; conditions: 10 nM siNA, 24 hrs post-transfection, vs non-targeting control, GAPDH-normalized, mean ± S.D., two experiments
Description: A549 (human; ATCC cat #CCL-185): Cells were cultured at 37° C. in the presence of 5% CO2 and grown in Ham's F12K medium with 2 mM L-glutamine adjusted to contain 1.5 g/L sodium bicarbonate and supplemented with fetal bovine serum at a final concentration of 10%, 100 μg/mL of streptomycin, and 100 U/mL penicillin.
(§1) Cells were plated in all wells of a tissue-culture treated, 96-well plate at a final count of 5000 cells/well (A549 cell line) and 3,500 cells/well (Hepal-6 cell line) in 100 μL of the appropriate culture media. The cells were cultured for 24 hours after plating at 37° C. in the presence of 5% CO2.
(§2) After 24 hours, complexes containing siNA and RNAiMax were created as follows: A solution of RNAiMax diluted 33-fold in OPTI-MEM was prepared. In parallel, solutions of the siNAs for testing were prepared to a final concentration of 120 nM in OPTI-MEM. After incubation of RNAiMax/OPTI-MEM solution at room temperature for 5 min, an equal volume of the siRNA solution and the RNAiMax solution were added together for each of the siNAs.
(§3) This solution was incubated at room temperature for 20 minutes. After incubation, 20 uL of the solution was added to each of the relevant wells. The final concentration of siNA in each well was 10 nM and the final volume of RNAiMax in each well was 0.3 ul.
(§4) The time of incubation with the RNAiMax-siNA complexes was 24 hours and there was no change in media between transfection and harvesting, unless otherwise indicated.
(§5) RNA was extracted from a 96-well plate using the TaqMan® Gene Expression Cells-to-CT™ Kit (Cat #4399002) with a modified protocol. Briefly, a 60 uL (1 plate) or 110 uL (2 plates) of the Lysis Solution with DNase I was dispensed into each well of the Lysis Buffer Plate (twin.tec full skirt plate). The lysis buffer and stop plates were stored at 4° C. until the cells were washed.
(§6) The plate was spun at 1100 rpm for 5 minutes. The culture medium was aspirated and discarded from the wells of the culture plate. The lysis was performed automatically using a BioMek FX instrument and method. After the Biomek method was completed, the lysis plate was incubated for 2 min. at room temperature. The lysis plate can be stored for 2 hours at 4° C., or at −20° C. or −80° C. for two months.
(§7) Each well of the reverse transcription plate required 10 uL of 2× reverse transcriptase Buffer, 1 uL of 20× reverse transcription enzyme and 2 uL of nuclease-free water. The reverse transcription master mix was prepared by mixing 2× reverse transcription buffer, 20× reverse transcription enzyme mix, and nuclease-free water. 13 uL of the reverse transcription master mix was dispensed into each well of the reverse transcription plate (semi-skirted). A separate reverse transcription plate was prepared for each cell plate. The plate was loaded onto a Biomek NX or Biomek FX Dual-96 and the Biomek method was run. The program is programmed to automatically added 7 uL of lysate from the cell lysis procedure described above into each well of the reverse transcription plate. The plate is sealed and spun on a centrifuge (1000 rpm for 30 seconds) to settle the contents to the bottom of the reverse transcription plate. The plate is placed in a thermocycler at 37° C. for 60 min, 95° C. for 5 min, and 4° C. until the plate is removed from the thermocycler. Upon removal, if not used immediately, the plate was frozen at −20° C.
(§8) A series of probes and primers were used to detect the various mRNA transcripts of the genes of ASK1, ASK2, and GAPDH in human cell lines and ASK1 and GAPDH in mouse cell lines. All Taqman probes and primers for the experiments were supplied as pre-validated sets by ABI (see Table 2).
(§9) The assays were performed on an ABI 7900 instrument, according to the manufacturer's instructions. A TaqMan Gene Expression Master Mix (provided in the Cells-to-CT™, Applied Biosystems, Cat #4399002) was used. […]

[2] = tested on: ASK1 mRNA; assay: ASK1 mRNA knock-down by siNA in mouse Hepa1-6 cells (RNAiMax transfection, Taqman RT-PCR); type: cell-based; conditions: 10 nM siNA, 24 hrs post-transfection, vs non-targeting control, GAPDH-normalized, mean ± S.D., two experiments
Description: Hepal-6 (murine; ATCC cat #CRL-1830): Cells were cultured at 37° C. in the presence of 5% CO2 and grown in Dulbecco's modified Eagle's medium (DMEM) with 4 mM L-glutamine adjusted to contain 1.5 g/L sodium bicarbonate and 4.5 g/L glucose and supplemented with 10% of fetal bovine serum, 100 μg/mL of streptomycin, and 100 U/mL penicillin.
as §1, §2, §3, §4, §5, §6, §7, §8, §9

| Substance | % KD Human [1] [%] | % KD Mouse [2] [%] |
| --- | --- | --- |
| 25374-DC: siNA duplex, sense B GcAcuGGGAAcuAcAccuu TTB, antisense AAGGuGuAGuucccAGuGcUU (SEQ ID NO: 29/30), human ASK1 target site 978 (sense GCACUGGGAACUACACCUUTT; antisense AAGGUGUAGUUCCCAGUGCUU; chemistry not fully specified) | 19 ± 4 | 43 ± 12 |
| 25375-DC: siNA duplex, sense B GGAuGAAAAuAGAAAccAA TTB, antisense UUGGuuucuAuuuucAuccUU (SEQ ID NO: 31/32), human ASK1 target site 4101 (sense GGAUGAAAAUAGAAACCAATT; antisense UUGGUUUCUAUUUUCAUCCUU; chemistry not fully specified) | 76 ± 6 | 6 ± 13 |
| 25377-DC: siNA duplex, sense B GGAAGAccAAGAcAAAAuu TTB, antisense AAUuuuGucuuGGucuuccUU (SEQ ID NO: 35/36), human ASK1 target site 3538 (sense GGAAGACCAAGACAAAAUUTT; antisense AAUUUUGUCUUGGUCUUCCUU; chemistry not fully specified) | 80 ± 3 | 10 ± 2 |
| 25378-DC: siNA duplex, sense B cGGAAGAccAAGAcAAAAu TTB, antisense AUUuuGucuuGGucuuccGUU (SEQ ID NO: 37/38), human ASK1 target site 3537 (sense CGGAAGACCAAGACAAAAUTT; antisense AUUUUGUCUUGGUCUUCCGUU; chemistry not fully specified) | 79 ± 5 | 34 ± 2 |
| 25380-DC: siNA duplex, sense B GAuGGAAAuucuAAAAAuu TTB, antisense AAUuuuuAGAAuuuccAuCUU (SEQ ID NO: 41/42), human ASK1 target site 4508 (sense GAUGGAAAUUCUAAAAAUUTT; antisense AAUUUUUAGAAUUUCCAUCUU; chemistry not fully specified) | 91 ± 0 | −7 ± 11 |
| 25381-DC: siNA duplex, sense B GcGAGGcccuGcAGAGcuu TTB, antisense AAGcucuGcAGGGccucGcUU (SEQ ID NO: 43/44), human ASK1 target site 690 (sense GCGAGGCCCUGCAGAGCUUTT; antisense AAGCUCUGCAGGGCCUCGCUU; chemistry not fully specified) | 70 ± 2 | 45 ± 2 |
| 25382-DC: siNA duplex, sense B ccAGAAcuAAGGccAcAuu TTB, antisense AAUGuGGccuuAGuucuGGUU (SEQ ID NO: 45/46), human ASK1 target site 3875 (sense CCAGAACUAAGGCCACAUUTT; antisense AAUGUGGCCUUAGUUCUGGUU; chemistry not fully specified) | 20 ± 4 | −26 ± 10 |
| 25383-DC: siNA duplex, sense B cuGcuGAucAAGAAGAcuu TTB, antisense AAGUCuucuuGAucAGcAGUU (SEQ ID NO: 47/48), human ASK1 target site 3918 (sense CUGCUGAUCAAGAAGACUUTT; antisense AAGUCUUCUUGAUCAGCAGUU; chemistry not fully specified) | 68 ± 7 | 1 ± 3 |
| 25384-DC: siNA duplex, sense B GGAAcAGccuucAAAucAA TTB, antisense UUGAuuuGAAGGcuGuuccUU (SEQ ID NO: 49/50), human ASK1 target site 3958 (sense GGAACAGCCUUCAAAUCAATT; antisense UUGAUUUGAAGGCUGUUCCUU; chemistry not fully specified) | 82 ± 1 | 61 ± 0 |
| 25386-DC: siNA duplex, sense B GAGcAAccAAGucAGAAuu TTB, antisense AAUucuGacuuGGuuGcucUU (SEQ ID NO: 53/54), human ASK1 target site 2461 (sense GAGCAACCAAGUCAGAAUUTT; antisense AAUUCUGACUUGGUUGCUCUU; inverted abasic end caps, TT overhang, chemistry not fully specified) | 80 ± 1 | 53 ± 1 |
| 25388-DC: siNA duplex, sense B GGuAGAGAcuuuAGAAAAA TTB, antisense UUUuucuAAAGucucuAccUU (SEQ ID NO: 57/58), human ASK1 target site 1360 (sense GGUAGAGACUUUAGAAAAATT; antisense UUUUUCUAAAGUCUCUACCUU; sense: sugars from the 5' end d2 f1 d5 f4 d9, [invAb] at 5' end, 3' end, backbone not given here; antisense: sugars from the 5' end rrrffffmmmmfffffmffmm, backbone not given here) | 89 ± 4 | 32 ± 5 |
| 25390-DC: siNA duplex, sense B GGcuGAAGAuuAuAcAcuA TTB, antisense UAGuGuAuAAucuucAGccUU (SEQ ID NO: 61/62), human ASK1 target site 4354 (sense GGCUGAAGAUUAUACACUATT; antisense UAGUGUAUAAUCUUCAGCCUU; chemistry not fully specified) | 93 ± 1 | −18 ± 14 |
| 25391-DC: siNA duplex, sense B cAGAGGccAAGGcAuucAu TTB, antisense AUGAAuGccuuGGccucuGUU (SEQ ID NO: 63/64), human ASK1 target site 3087 (sense CAGAGGCCAAGGCAUUCAUTT; antisense AUGAAUGCCUUGGCCUCUGUU; chemistry not fully specified) | 11 ± 38 | −3 ± 4 |
| 25392-DC: siNA duplex, sense B cAcuGAccGAAAAAucAuA TTB, antisense UAUGAuuuuucGGucAGuGUU (SEQ ID NO: 65/66), human ASK1 target site 3661 (sense CACUGACCGAAAAAUCAUATT; antisense UAUGAUUUUUCGGUCAGUGUU; chemistry not fully specified) | 67 ± 6 | 63 ± 1 |
| 25393-DC: siNA duplex, sense B GGuucAAAAAGGcAuuuGA TTB, antisense UCAAAuGccuuuuuGAAccUU (SEQ ID NO: 67/68), human ASK1 target site 1614 (sense GGUUCAAAAAGGCAUUUGATT; antisense UCAAAUGCCUUUUUGAACCUU; chemistry not fully specified) | 88 ± 5 | 77 ± 2 |
| 25394-DC: siNA duplex, sense B uucGGAAucAuAAcAucAA TTB, antisense UUGAuGuuAuGAuuccGAAUU (SEQ ID NO: 69/70), human ASK1 target site 3786 (sense UUCGGAAUCAUAACAUCAATT; antisense UUGAUGUUAUGAUUCCGAAUU; chemistry not fully specified) | 76 ± 8 | 60 ± 6 |
| 25395-DC: siNA duplex, sense B cuGAuGAcAAGAAAGGuAu TTB, antisense AUAccuuucuuGucAucAGUU (SEQ ID NO: 71/72), human ASK1 target site 2139 (sense CUGAUGACAAGAAAGGUAUTT; antisense AUACCUUUCUUGUCAUCAGUU; chemistry not fully specified) | 32 ± 12 | 6 ± 15 |
